Our source for the IC50 and inhibition values is ChEMBL document CHEMBL4334430, “A cell-based screening system for RNA polymerase I inhibitors” (Medchemcomm, 2019).

One assay deals with NCI-H460. Kind of assay: Antiproliferative activity against human H460 cells incubated for 4 days by MTT assay. The conditions noted are these: NCI-H460, 96 h. It counts as functional, cell-based.
For assay [1], the system named is Saccharomyces cerevisiae. Kind of assay: Inhibition of yeast RNA polymerase 1 in YBR140C cells expressing human RNA polymerase 1 promoter and rRNA assessed as reduction in cell growth at 390 to 1560 nM by UV-spectrophotometric analysis. Type of assay: cell-based.
In assay [2] the test system is Saccharomyces cerevisiae. Kind of assay: Inhibition of yeast RNA polymerase 1 in YBR140C cells expressing human RNA polymerase 1 promoter and rRNA assessed as reduction in human rDNA transcription at 390 to 3120 nM by qRT-PCR analysis. It counts as cell-based. (Real-time PCR tracks product formation cycle by cycle.)
The subject of another assay is A2780. Description: Antiproliferative activity against human A2780 cells incubated for 4 days by MTT assay. To be noted: A2780, 96 h. Type of assay: functional, cell-based. (Formazan colour is commonly taken as a measure of viable cells.)
For assay [3], the system named is Saccharomyces cerevisiae. Description: Inhibition of yeast RNA polymerase 1 in YBR140C cells expressing human RNA polymerase 1 promoter and rRNA assessed as reduction in human rDNA transcription at 312 to 2500 nM by qRT-PCR analysis. Type of assay: cell-based.
The test system of assay [4] is Saccharomyces cerevisiae. Description: Inhibition of yeast RNA polymerase 1 in YBR140C cells expressing human RNA polymerase 1 promoter and rRNA assessed as reduction in cell growth at 126 to 2500 nM by UV-spectrophotometric analysis. It counts as cell-based.

Calls of active or inactive are those of the source. The calls are words filed in the database; no cut-off is given here.

By IC50 is commonly meant the concentration that inhibits the measured activity by half. A lower IC50 goes with greater potency in that assay.

Turning to `COCc1c(C(C)C)nc(C(C)C)c(/C=C/[C@@H](O)C[C@@H](O)CC(=O)O)c1-c1ccc(F)cc1` [CERIVASTATIN SODIUM], the IC50 in the assay on NCI-H460 was 3500 nM; in the assay on A2780, 700 nM. The inhibition result in the assay with Saccharomyces cerevisiae [1] and with Saccharomyces cerevisiae [2] was “Active” throughout.
For the compound `Cc1cnc(CNC(=O)c2c(=O)c3ccc(N4CCCN(C)CC4)nc3n3c2sc2ccccc23)cn1` [CX-5461], the inhibition result with Saccharomyces cerevisiae [3] and with Saccharomyces cerevisiae [4] was “Active” in each case. Moreover, the IC50 in the assay on A2780 stood at 120 nM.
